Test systems include OVCAR-3 ovarian; RXF 393 renal; 786-0 renal; LOX IMVI melanoma; MALME-3M melanoma; HCC-2998 colon; SK-OV-3 ovarian; UO-31 renal; HS 578T breast; M14 melanoma; BT-549 breast.
What all share (assay): DTP human tumour cell line panel, 48 h

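Protocol summary: plate cells (96-well), add compound at 5 concentrations, incubate 48 h, interpolate endpoints linearly. TGI is the concentration that stops growth completely.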 Some results are limits rather than exact numbers.

With `COC(=O)C1=CCC2c3[nH]c4ccccc4c3CCN2C1` (centres undefined), the TGI with OVCAR-3 ovarian, in the assay with RXF 393 renal, in the assay on 786-0 renal, with LOX IMVI melanoma, with MALME-3M melanoma and with HCC-2998 colon was over 354 µM in each case. In the assay on SK-OV-3 ovarian, the TGI was over 354 µM.

For `CC(C)c1c(O[Si](C(C)C)(C(C)C)C(C)C)cc2c(c1O)CC[C@H]1C(C)(C)CCC[C@]21C`, the TGI with OVCAR-3 ovarian, in the assay on RXF 393 renal, in the assay with UO-31 renal, in the assay with HS 578T breast, in the assay on M14 melanoma and with 786-0 renal was over 100 µM each time. Also, the TGI with LOX IMVI melanoma, with MALME-3M melanoma and with SK-OV-3 ovarian was over 100 µM each time.

As for `CC(C)=CCc1cc(/C=C/C(=O)O)cc(CC=C(C)C)c1O`, the total growth inhibition concentration (TGI) with OVCAR-3 ovarian, in the assay with UO-31 renal, in the assay on HS 578T breast, in the assay with M14 melanoma, in the assay with 786-0 renal and in the assay with BT-549 breast was over 100 µM throughout. The TGI in the assay with LOX IMVI melanoma and in the assay on SK-OV-3 ovarian was over 100 µM each time.

Take `CC(C)C(CCOS(=O)(=O)O)CCC(C)[C@H]1[C@@H](O)C(O)C2[C@]3(O)C[C@@H](O)C4(O)C[C@@H](O)CC[C@]4(C)C3CC[C@@]21C` (some centres undefined): the TGI with OVCAR-3 ovarian, in the assay on RXF 393 renal, with UO-31 renal, in the assay with M14 melanoma, with 786-0 renal and in the assay with LOX IMVI melanoma was over 100 µM in each case. Also, the TGI in the assay on MALME-3M melanoma, in the assay with HCC-2998 colon and in the assay with SK-OV-3 ovarian was over 100 µM throughout.

As to `O=C(OCC(OC(=O)c1ccccc1)C1CC(C2(O)CCCCC2)C(=O)O1)c1ccccc1` (centres undefined), the TGI in the assay with OVCAR-3 ovarian is over 25 µM; in the assay on RXF 393 renal it was over 25 µM; in the assay on UO-31 renal it was 3.88 µM; with M14 melanoma, over 25 µM; in the assay with 786-0 renal, over 25 µM; in the assay on BT-549 breast, over 25 µM. For the same compound, the TGI in the assay with LOX IMVI melanoma, in the assay on MALME-3M melanoma, with HCC-2998 colon and with SK-OV-3 ovarian was over 25 µM in each case.

For the compound `C[C@@H](c1ccccc1)N1CO[C@@]2(C#Cc3ccc4c(c3)OCO4)CCC[C@@H]12`, the TGI in the assay with RXF 393 renal was determined as 24.4 µM; with UO-31 renal, 28.1 µM; in the assay on HS 578T breast, 33.4 µM; in the assay with M14 melanoma, 31.2 µM; with 786-0 renal, 36 µM; with LOX IMVI melanoma, 25.2 µM. Besides, the concentration for total growth inhibition (TGI) with HCC-2998 colon amounted to 34.7 µM; in the assay on SK-OV-3 ovarian, 34.5 µM.

Turning to `CC#CC#C/C=C1\C=CC2(OC=CC2O)O1` (centres undefined), the TGI in the assay with OVCAR-3 ovarian is over 20 µM; in the assay with RXF 393 renal, over 22 µM; with UO-31 renal, over 23.3 µM; in the assay on M14 melanoma it was over 23.3 µM; with 786-0 renal, over 23.3 µM; in the assay on LOX IMVI melanoma it was over 23.3 µM. Moreover, the concentration for total growth inhibition (TGI) in the assay on MALME-3M melanoma, with HCC-2998 colon and with SK-OV-3 ovarian was over 23.3 µM throughout.

`O=c1c2cc([N+](=O)[O-])ccc2n2n1CCCCC2`: the concentration for total growth inhibition (TGI) in the assay on OVCAR-3 ovarian, in the assay with RXF 393 renal, in the assay on UO-31 renal, in the assay with HS 578T breast, in the assay on M14 melanoma and with 786-0 renal was over 100 µM throughout. In addition, the total growth inhibition concentration (TGI) in the assay with LOX IMVI melanoma, in the assay with MALME-3M melanoma, with HCC-2998 colon and in the assay on SK-OV-3 ovarian was over 100 µM each time.

For the compound `c1ccc2c(c1)-c1ccccc1C2NC1=NCCO1`, the TGI in the assay with OVCAR-3 ovarian was 67.8 µM; in the assay with RXF 393 renal it was over 100 µM; in the assay with UO-31 renal it was 50.7 µM; in the assay on HS 578T breast it was over 100 µM; with M14 melanoma it was 32.5 µM; with 786-0 renal, 84.5 µM. The TGI in the assay with LOX IMVI melanoma is 48.3 µM; in the assay on MALME-3M melanoma it was 27 µM; with HCC-2998 colon, 33.3 µM; in the assay on SK-OV-3 ovarian, over 100 µM.

For the compound `CSC1=Nc2ccccc2N=C(c2ccccc2)C1`, the TGI is over 100 µM in the assay on OVCAR-3 ovarian; 71.6 µM with RXF 393 renal; over 100 µM in the assay on UO-31 renal; over 100 µM with M14 melanoma; over 100 µM in the assay on 786-0 renal; 32.2 µM in the assay with LOX IMVI melanoma. For the same compound, the TGI in the assay with MALME-3M melanoma, with HCC-2998 colon and in the assay on SK-OV-3 ovarian was over 100 µM in each case.

With `C/C(CCN(C)C)=N\OC(=O)c1ccccc1`, the TGI in the assay with OVCAR-3 ovarian, in the assay with RXF 393 renal, with UO-31 renal, in the assay with M14 melanoma, with 786-0 renal and with LOX IMVI melanoma was over 100 µM each time. The TGI with MALME-3M melanoma, in the assay on HCC-2998 colon and in the assay with SK-OV-3 ovarian was over 100 µM each time.

For the compound `C=C(C)[C@H]1CC(=O)[C@@]2(C)C[C@H]3O[C@]3(C)CC/C=C(\C)CC[C@H]12`, the TGI is 80.1 µM with OVCAR-3 ovarian; 74.1 µM in the assay on RXF 393 renal; over 100 µM with UO-31 renal; over 100 µM in the assay on 786-0 renal; over 100 µM with LOX IMVI melanoma; over 100 µM in the assay on MALME-3M melanoma. In addition, the TGI with HCC-2998 colon and in the assay with SK-OV-3 ovarian was over 100 µM in each case.

With `Cc1ccc(S(=O)(=O)Nn2c(S)c(C#N)c(-c3ccc(Cl)cc3)c(C#N)c2=O)cc1`, the TGI was over 100 µM in the assay with OVCAR-3 ovarian; over 100 µM in the assay on RXF 393 renal; 57.5 µM with UO-31 renal; over 100 µM in the assay with M14 melanoma; over 100 µM in the assay on 786-0 renal; 41.9 µM in the assay on BT-549 breast. Further, the total growth inhibition concentration (TGI) with LOX IMVI melanoma, in the assay on MALME-3M melanoma, in the assay on HCC-2998 colon and in the assay on SK-OV-3 ovarian was over 100 µM in each case.

Consider `O=C(Nc1ccc(F)cc1)c1cc2c(cc1Cl)Sc1nccn1S2(=O)=O`, for which the TGI with OVCAR-3 ovarian, with RXF 393 renal, in the assay on HS 578T breast, in the assay with M14 melanoma, with 786-0 renal and in the assay on LOX IMVI melanoma was over 100 µM each time. Besides, the total growth inhibition concentration (TGI) with MALME-3M melanoma, with HCC-2998 colon and in the assay on SK-OV-3 ovarian was over 100 µM throughout.

In the case of `C=C(C)COc1cc(NC(=S)OC(C)C)ccc1Cl`, the TGI turned out to be 29.6 µM with OVCAR-3 ovarian; 26.9 µM with UO-31 renal; 49.9 µM in the assay on HS 578T breast; 31.7 µM in the assay with M14 melanoma; 30.5 µM with 786-0 renal; 24.3 µM in the assay on BT-549 breast. For the same compound, the TGI was determined as 30.4 µM in the assay with LOX IMVI melanoma, 29.5 µM in the assay on HCC-2998 colon and 38.1 µM with SK-OV-3 ovarian.

As usually defined, the TGI is the concentration giving total growth inhibition. High values mean less potent growth arrest, low ones more potent growth arrest.
